Laboratory results: patent publication US9199941B2, “Pyrazole indanyl carboxamides” (BAYER CROPSCIENCE AG, priority 2012, dated 2015)

Legend:
[1] = log P by HPLC on reversed phase columns (EEC directive 79/831 Annex V.A8); assay type: physicochemical; conditions: Table 1, compounds of formula (I); method [a]: LC-MS at pH 2.7, 0.1% formic acid in water / acetonitrile
[2] = tested on: Pyrenophora teres; test: In vivo preventive test on Pyrenophora teres (net blotch on barley); conditions: 500 ppm, preventive spray, barley plants, incubated 48 hours then 12 days
Description: Barley plants (“Plaisant” variety), sown in starter cups on a 50/50 peat soil-pozzolana substrate and grown at 22° C., are treated at the 1-leaf stage (10 cm height) by spraying with the active ingredient prepared as described above. Plants, used as controls, are treated with the mixture of acetone/tween/DMSO/water not containing the active material. After 24 hours, the plants are contaminated by spraying the leaves with an aqueous suspension of Pyrenophora teres spores (12 000 spores per ml). The spores are collected from a 12-day-old culture.

[3] = tested on: Pyricularia oryzae; assay type: in vivo; conditions: 500 ppm, preventive spray, rice plants, grading 6 days after contamination
[4] = tested on: Puccinia recondita; test: In vivo preventive test on Puccinia recondita (brown rust on wheat); conditions: 500 ppm, preventive spray, wheat plants, grading 12 days after contamination
Description: Plants, used as controls, are treated with the mixture of acetone/tween/DMSO/water not containing the active material. After 24 hours, the plants are contaminated by spraying the leaves with an aqueous suspension of Puccinia […] spores (100 000 spores per ml). […] Grading (% of efficacy) is carried out 12 days after the contamination, in comparison with the control plants.

[5] = tested on: Sphaerotheca fuliginea; test: In vivo preventive test on Sphaerotheca fuliginea (powdery mildew on cucurbits); conditions: 500 ppm, preventive spray, gherkin plants, grading 12 days after contamination
Description: Gherkin plants (“Vert petit de Paris” variety), sown in starter cups on a 50/50 peat soil-pozzolana substrate and grown at 24° C., are treated at the Z11 cotyledon stage by spraying with the active ingredient prepared as described above. Plants, used as controls, are treated with the mixture of acetone/tween/DMSO/water not containing the active material. After 24 hours, the plants are contaminated by spraying the cotyledons with an aqueous suspension of Sphaerotheca fuliginea spores (100 000 spores per ml). The spores are collected from infected plants. The contaminated gherkin plants are incubated at about 20° C. and at 70-80% relative humidity. Grading (% of efficacy) is carried out 12 days after the contamination, in comparison with the control plants.

[6] = tested on: Uromyces appendiculatus; test: In vivo preventive test on Uromyces appendiculatus (bean rust); conditions: 500 ppm, preventive spray, bean plants, grading 11 days after contamination
Description: Bean plants (“Saxa” variety), sown in starter cups on a 50/50 peat soil-pozzolana substrate and grown at 24° C., are treated at the 2-leaf stage (9 cm height) by spraying with the active ingredient prepared as described above. Plants, used as controls, are treated with the mixture of acetone/tween/DMSO/water not containing the active material. After 24 hours, the plants are contaminated by spraying the leaves with an aqueous suspension of Uromyces appendiculatus spores (150 000 spores per ml). […] Grading (% of efficacy) is carried out 11 days after the contamination, in comparison with the control plants.

[7] = tested on: Phakopsora pachyrhizi; test: In vivo Phakopsora test (soybeans) / preventive; conditions: 10 ppm of active ingredient, evaluated 7 days after the inoculation
Description: (§1) [table] To produce a suitable preparation of active compound, 1 part by weight of active compound is mixed with the stated amounts of solvent and emulsifier, and the concentrate is diluted with water to the desired concentration. To test for preventive activity, young plants are sprayed with the preparation of active compound at the stated rate of application. […] The plants remain in the incubation cabinet at approximately 24° C. and a relative atmospheric humidity of approximately 80% and a day/night interval of 12 h.

[8] = tested on: Blumeria graminis fsp. hordei; test: In vivo Blumeria test (barley) / preventive; conditions: 500 ppm of active ingredient, evaluated 7 days after the inoculation
Description: [table] To produce a suitable preparation of active compound, 1 part by weight of active compound or active compound combination is mixed with the stated amounts of solvent and emulsifier, and the concentrate is diluted with water to the desired concentration. To test for preventive activity, young plants are sprayed with the preparation of active compound or active compound combination at the stated rate of application. After the spray coating has been dried, the plants are dusted with spores of Blumeria graminis fsp. hordei. The plants are placed in the greenhouse at a temperature of approximately 18° C. and a relative atmospheric humidity of approximately 80% to promote the development of mildew pustules.

[9] = tested on: Fusarium nivale (var. majus); test: In vivo Fusarium nivale (var. majus) test (wheat) / preventive; conditions: 500 ppm of active ingredient, evaluated 5 days after the inoculation
Description: [table] To produce a suitable preparation of active compound, 1 part by weight of active compound or active compound combination is mixed with the stated amounts of solvent and emulsifier, and the concentrate is diluted with water to the desired concentration. To test for preventive activity, young plants are sprayed with the preparation of active compound or active compound combination at the stated rate of application. After the spray coating has been dried, the plants are slightly injured by using a sandblast and afterwards they are sprayed with a conidia suspension of Fusarium nivale (var. majus).

[10] = tested on: Alternaria brassicae; test: In vivo preventive test on Alternaria brassicae (leaf spot on radish); conditions: 500 ppm, preventive spray, radish plants, grading 6 days after contamination
Description: Radish plants (“Pernod Clair” variety), sown in starter cups on a 50/50 peat soil-pozzolana substrate and grown at 17° C., are treated at the cotyledon stage by spraying with the active ingredient prepared as described above. Plants, used as controls, are treated with the mixture of acetone/tween/DMSO/water not containing the active material. After 24 hours, the plants are contaminated by spraying the cotyledons with an aqueous suspension of Alternaria brassicae spores (50 000 spores per ml). The spores are collected from a 15-day-old culture. […] Grading (% of efficacy) is carried out 6 days after the contamination, in comparison with the control plants.

[11] = tested on: Botrytis cinerea; test: In vivo preventive test on Botrytis cinerea (grey mould), gherkin; conditions: 500 ppm, preventive spray, gherkin plants, grading 4 to 5 days after contamination
Description: Gherkin plants (“Vert petit de Paris” variety), sown in starter cups on a 50/50 peat soil-pozzolana substrate and grown at 24° C., are treated at the Z11 cotyledon stage by spraying with the active ingredient prepared as described above. Plants, used as controls, are treated with the mixture of acetone/tween/DMSO/water not containing the active material. After 24 hours, the plants are contaminated by spraying the cotyledons with an aqueous suspension of cryopreserved Botrytis cinerea spores (50 000 spores per ml). The spores are suspended in a nutrient solution composed of 10 g/L of PDB, 50 g/L of D-Fructose, 2 g/L of NH4NO3 and 1 g/L of KH2PO4. The contaminated gherkin plants are incubated at 17° C. and at 90% relative humidity. Grading (% of efficacy) is carried out 4 to 5 days after the contamination, in comparison with the control plants.

[12] = tested on: Phytophthora infestans; assay type: in vivo; conditions: 500 ppm, preventive spray, tomato plants, grading 5 days after contamination
[13] = tested on: Septoria tritici; test: In vivo preventive test on Septoria tritici (leaf spot on wheat); conditions: 500 ppm, preventive spray, wheat plants, grading 24 days after contamination
Description: Wheat plants (“Scipion” variety), sown in starter cups on a 50/50 peat soil-pozzolana substrate and grown at 22° C., are treated at the 1-leaf stage (10 cm height) by spraying with the active ingredient prepared as described above. Plants, used as controls, are treated with the mixture of acetone/tween/DMSO/water not containing the active material. After 24 hours, the plants are contaminated by spraying the leaves with an aqueous suspension of cryopreserved Septoria tritici spores (500 000 spores per ml). […] Grading (% of efficacy) is carried out 24 days after the contamination, in comparison with the control plants.

[14] = tested on: Venturia inaequalis; test: In vivo Venturia test (apples) / preventive; conditions: 100 ppm of active ingredient, evaluated 10 days after the inoculation
Description: as §1, with “are then placed” for “remain”, “a greenhouse” for “the incubation cabinet”, “21°” for “24°”, “90%.” for “80% and a day/night interval of 12 h.”

Structure (SMILES) | logP [1] | Eff. % [2] | Eff. % [3] | Eff. % [4] | Eff. % [5] | Eff. % [6] | Eff. % [7] | Eff. % [8] | Eff. % [9] | Eff. % [10] | Eff. % [11] | Eff. % [12] | Eff. % [13] | Eff. % [14]
CC1CC(C(C)C)c2cccc(NC(=O)c3cn(C)nc3C(F)F)c21 (stereo not shown) [Example 1] | 3.74[a] | 81% | 93% | 100% | 100% | 100% | 100% | 80% | 86% | – | – | – | – | –
CC1CC(C)c2c(NC(=O)c3cn(C)nc3C(F)F)cccc21 (stereo not shown) [Example 7] | 3.04[a] | 92% | – | 100% | 100% | 100% | 100% | 94% | 100% | 100% | 100% | 99% | 93% | 100%
